In ChEMBL document CHEMBL5365470, “Design, synthesis, and biological evaluation of THIQ as antidepressive agents” (Bioorg Med Chem Lett, 2023):

Tests used:
[1] = Cytoprotective activity against corticosterone-induced […] PC12 cell damage assessed as cell viability at 50 uM (reference value: 51.13 to 51.51 %); type: functional; conditions: Rattus norvegicus, PC-12, read-out: Activity
[2] = Toxicity in […] PC12 cells at 50 uM; type: cell-based, Rattus norvegicus; conditions: pc12, 50 µM
[3] = Cytoprotective activity against corticosterone-induced […] PC12 cell damage assessed as cell viability at 10 uM (reference value: 51.13 to 51.51 %); type: functional; conditions: PC-12, read-out: Activity
[4] = Cytoprotective activity against corticosterone-induced […] PC12 cell damage assessed as cell viability at 5 uM (reference value: 51.13 to 51.51 %); type: functional; conditions: PC-12, read-out: Activity
PC12 = assay: Cytoprotective activity against corticosterone-induced […] PC12 cell damage assessed as increase in cell survival; type: functional, cell-based; conditions: dose 5-50 µM
Mus musculus [5] = assay: Antidepressant activity in SPF ICR mouse assessed as decrease in immobility duration at 7 mg/kg, po via gavage administered daily for 7 days measured post-last dose by tail suspension test relative to control; type: functional; design: scale not given: the % may be the effect or the level left; conditions: time 7 day
[6] = Toxicity in SPF ICR mouse assessed as body weight growth at 7 mg/kg, po via gavage administered daily for 7 days (reference value: 32.62 +/- 6.17 %); type: organism-based; conditions: in vivo, 168 h, time 7 day
[7] = Toxicity in SPF ICR mouse assessed as body weight at 7 mg/kg, po administered via gavage measured on day 1 (reference value: 22.24 +/- 0.9 g); type: organism-based; conditions: in vivo, 24 h, time 1 day
[8] = Toxicity in SPF ICR mouse assessed as body weight at 7 mg/kg, po via gavage administered daily for 7 days measured on day 7 (reference value: 29.54 +/- 1.87 g); type: organism-based; conditions: in vivo, 168 h, time 7 day
Mus musculus [9] = assay: Antidepressant activity in SPF ICR mouse assessed as decrease in immobility duration at 7 mg/kg, po via gavage administered daily for 7 days measured post-last dose by forced swimming test relative to control; type: functional; design: scale not given: the % may be the effect or the level left; conditions: time 7 day
[10] = Cytoprotective activity against corticosterone-induced […] PC12 cells assessed as cell survival at 10 uM preincubated for 1 hr followed by corticosterone stimulation and measured after 24 hrs (reference value: 51.13 to 51.51 %); type: functional; conditions: PC-12, time 25 hrs, read-out: Activity
[11] = Cytoprotective activity against corticosterone-induced […] PC12 cells assessed as cell survival at 5 uM preincubated for 1 hr followed by corticosterone stimulation and measured after 24 hrs (reference value: 51.13 to 51.51 %); type: functional; conditions: PC-12, time 25 hrs, read-out: Activity
[12] = Cytoprotective activity against corticosterone-induced […] PC12 cell damage assessed as cell viability at 50 uM preincubated for 1 hr followed by corticosterone stimulation and measured after 24 hrs (reference value: 51.13 to 51.51 %); type: functional; conditions: PC-12, time 25 hrs, read-out: Activity

Row | SMILES | viability at 50 µM [1] [%] | Activity [2] | also measured
1 | COc1cc2c(cc1OC)CN(C(=O)c1ccccc1O)CC2 | 47.3 | Toxic | –
2 | COc1cc2c(cc1OC)CN(C=O)CC2 | 49.9 | Toxic | –
3 | COc1cc2c(cc1OC)CN(C(=O)c1ccccc1)CC2 | 35.6 | Toxic | –
4 | COc1cc2c(cc1OC)CN(C(=O)c1cc3ccccc3[nH]1)CC2 | 62.8 | – | –
5 | COc1ccc(CCCN2CCc3cc(OC)c(OC)cc3C2)cc1 | 51.8 | Non-Toxic | –
6 | COc1cc2c(cc1OC)CN(C(=O)c1ccc(O)cc1)CC2 | 39.8 | Toxic | –
7 | COc1ccc(CC(=O)N2CCc3cc(OC)c(OC)cc3C2)cc1 | 51.9 | – | –
8 | COc1cc2c(cc1OC)CN(Cc1ccc(F)cc1)CC2 | 49.5 | Non-Toxic | –
9 | COc1cc2c(cc1OC)CN(C(=O)c1ccc(OC(C)=O)cc1)CC2 | 48.4 | Toxic | –
10 | COc1cc2c(cc1OC)CNCC2 | 45.8 | – | viability at 10 µM [3]: 57%; viability at 5 µM [4]: 65.7%
11 | COc1cc2c(cc1OC)CN(C(=O)c1cccs1)CC2 | 58.5 | – | –
12 | COc1ccc(C(=O)N2CCc3cc(OC)c(OC)cc3C2)cc1 | 44.8 | Toxic | –
13 | COc1ccc(CCN2CCc3cc(OC)c(OC)cc3C2)cc1 | 69.3 | Non-Toxic | Activity (PC12): Dose-Dependent Effect; Activity (Mus musculus [5]): 65.85%; Activity [6]: 29.58%; Activity [7]: 21.3 g; viability at 10 µM [3]: 65%; viability at 5 µM [4]: 49.1%; Activity [8]: 27.5 g; Activity (Mus musculus [9]): 57.65%
14 | CCN1CCc2cc(OC)c(OC)cc2C1 | 58.9 | Non-Toxic | –
15 | COc1cc2c(cc1OC)CN(C(=O)c1ccncc1)CC2 | 51.2 | – | –
16 | COc1cc2c(cc1OC)CN(C(=O)c1ccc(F)cc1)CC2 | 49.6 | Toxic | –
17 | COc1cc2c(cc1OC)CN(CCc1ccc(O)cc1)CC2 | 50.4 | Non-Toxic | –
18 | COc1cc2c(cc1OC)CN(C(=O)c1ccc(C(F)(F)F)cc1)CC2 | 48.3 | Toxic | –
19 | COc1ccc2c(c1O)-c1c(O)c(OC)cc3c1[C@H](C2)[N+](C)(C)CC3 [MAGNOFLORINE] | – | – | Activity (Mus musculus [5]): 65.65%; Activity [6]: 21.15%; Activity [7]: 24.21 g; viability at 10 µM [10]: 73.7%; viability at 5 µM [11]: 48.6%; viability at 50 µM [12]: 48.6%; Activity [8]: 29.44 g; Activity (Mus musculus [9]): 68.61%
20 | COc1cc2c(cc1OC)CN(C(=O)C(C)(C)C)CC2 | 33.7 | Toxic | –
21 | COc1cc2c(cc1OC)CN(C)CC2 | 54.5 | Non-Toxic | –
22 | COc1cc2c(cc1OC)CN(C(C)=O)CC2 | 37.2 | Toxic | –
23 | COc1cc2c(cc1OC)CN(CCc1ccccc1)CC2 | 54.2 | Non-Toxic | –
24 | COc1cc2c(cc1OC)CN(C(=O)Cc1ccc(O)cc1)CC2 | 42.4 | Toxic | –
25 | COc1ccc(CN2CCc3cc(OC)c(OC)cc3C2)cc1 | 51.8 | Non-Toxic | –
26 | COc1cc2c(cc1OC)CN(CCc1ccc(F)cc1)CC2 | 38.2 | – | –
27 | COc1cc2c(cc1OC)CN(Cc1ccccc1)CC2 | 49.6 | Non-Toxic | –
